Laboratory results published in patent US11214803B2, “Modulators of YAP1 expression” (Ionis Pharmaceuticals, Inc., priority 2019, dated 2022).
Strand notation (5' to 3'): a small letter for the sugar, then the base; units joined by * are phosphorothioate-linked, units joined directly phosphodiester-linked; [ ] holds rarer units or linkages, { } end groups; capitals alone tell only the bases. k = constrained ethyl (cEt); [5mC] = 5-methylcytosine; d = 2'-deoxy (DNA)

These substances were tested on Yap1 mRNA (assay: Antisense inhibition of human Yap1 in A-431 cells by cEt gapmers, single dose (Example 2, RTS4814)). Settings: Table 18; A-431 cells, 5,000 cells per well, free uptake, 2,000 nM modified oligonucleotide, approx. 48 hours; RTS4814; normalized to RIBOGREEN; Yap1 mRNA as percent of untreated control.
Type: cell-based
Summary of the method: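 Each 16-nucleoside gapmer (ten-deoxy gap, three-cEt wings) is tested once at 2,000 nM in A-431 cells by free uptake. Yap1 mRNA after about 48 hours is measured by quantitative RT-PCR and expressed relative to untreated control.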

| Substance | YAP1 (% UTC) |
| --- | --- |
| 1074980 (antisense kT*kA*kT*dT*dG*d[5mC]*d[5mC]*dA*dG*dT*dT*d[5mC]*dT*kT*kG*kT) [Compound 1074980] | 26 % UTC |
| 1075012 (antisense k[5mC]*kT*kA*dT*dT*dG*dG*dA*dA*dT*dG*dT*dT*kA*kA*k[5mC]) [Compound 1075012] | 119 % UTC |
| 1075044 (antisense kA*kA*kT*dT*dA*dG*dA*d[5mC]*dT*d[5mC]*d[5mC]*d[5mC]*d[5mC]*k[5mC]*kA*kA) [Compound 1075044] | 58 % UTC |
| 1075076 (antisense k[5mC]*kA*kT*dA*dA*d[5mC]*dA*dT*d[5mC]*dA*dT*dG*dG*kA*kA*kG) [Compound 1075076] | 25 % UTC |

Same assay, conditions: Table 19; A-431 cells, 5,000 cells per well, free uptake, 2,000 nM modified oligonucleotide, approx. 48 hours; RTS4814; normalized to RIBOGREEN; Yap1 mRNA as percent of untreated control

| Substance | YAP1 (% UTC) |
| --- | --- |
| 1074981 (antisense kT*kT*kA*dT*dT*dG*d[5mC]*d[5mC]*dA*dG*dT*dT*d[5mC]*kT*kT*kG) [Compound 1074981] | 9 % UTC |
| 1075013 (antisense k[5mC]*kA*kT*dA*dA*dA*d[5mC]*d[5mC]*d[5mC]*dA*d[5mC]*dT*dT*k[5mC]*kG*kA) [Compound 1075013] | 102 % UTC |
| 1075045 (antisense kA*kA*kA*dT*dT*dA*dG*dA*d[5mC]*dT*d[5mC]*d[5mC]*d[5mC]*k[5mC]*k[5mC]*kA) [Compound 1075045] | 18 % UTC |
| 1075077 (antisense kT*kA*kT*dA*d[5mC]*dG*dG*dT*d[5mC]*d[5mC]*dA*dT*dA*kA*k[5mC]*kA) [Compound 1075077] | 35 % UTC |

Same assay, conditions: Table 20; Yap1 mRNA, percent of untreated control; 3-10-3 cEt gapmers targeting SEQ ID NO.: 1 and 2

| Substance | YAP1 (% UTC) |
| --- | --- |
| 1074982 (antisense kA*k[5mC]*k[5mC]*dT*dT*dT*dT*dA*dT*dT*dG*d[5mC]*d[5mC]*kA*kG*kT) [Compound 1074982] | 13 % UTC |
| 1075014 (antisense kG*kG*kA*dG*dA*dA*dA*dT*dA*dA*dA*dA*dG*kT*k[5mC]*kG) [Compound 1075014] | 46 % UTC |
| 1075046 (antisense kA*kA*kA*dA*dT*dT*dA*dG*dA*d[5mC]*dT*d[5mC]*d[5mC]*k[5mC]*k[5mC]*k[5mC]) [Compound 1075046] | 12 % UTC |

Same assay, conditions: Table 21; Yap1 mRNA, percent of untreated control; 3-10-3 cEt gapmers targeting SEQ ID NO.: 1 and 2

| Substance | YAP1 (% UTC) |
| --- | --- |
| 1074983 (antisense k[5mC]*kA*k[5mC]*d[5mC]*dT*dT*dT*dT*dA*dT*dT*dG*d[5mC]*k[5mC]*kA*kG) [Compound 1074983] | 11 % UTC |
| 1075015 (antisense k[5mC]*kA*kG*dA*dA*dT*dA*dA*dG*dT*dA*dT*dG*kA*kT*kT) [Compound 1075015] | 55 % UTC |
| 1075047 (antisense kT*kA*kA*dA*dA*dT*dT*dA*dG*dA*d[5mC]*dT*d[5mC]*k[5mC]*k[5mC]*k[5mC]) [Compound 1075047] | 7 % UTC |

Same assay, conditions: Table 22; Yap1 mRNA as percent of untreated control; 3-10-3 cEt gapmers; single dose

| Substance | YAP1 (% UTC) |
| --- | --- |
| 1074984 (antisense kA*kT*k[5mC]*dA*d[5mC]*d[5mC]*dT*dT*dT*dT*dA*dT*dT*kG*k[5mC]*k[5mC]) [Compound 1074984] | 31 % UTC |
| 1075016 (antisense kT*k[5mC]*kA*dG*dA*dA*dT*dA*dA*dG*dT*dA*dT*kG*kA*kT) [Compound 1075016] | 100 % UTC |
| 1075048 (antisense kG*kT*kA*dA*dA*dA*dT*dT*dA*dG*dA*d[5mC]*dT*k[5mC]*k[5mC]*k[5mC]) [Compound 1075048] | 4 % UTC |

Same assay, conditions: Table 23; Yap1 mRNA as percent of untreated control; 3-10-3 cEt gapmers; single dose

| Substance | YAP1 (% UTC) |
| --- | --- |
| 1074985 (antisense kA*kA*kT*d[5mC]*dA*d[5mC]*d[5mC]*dT*dT*dT*dT*dA*dT*kT*kG*k[5mC]) [Compound 1074985] | 49 % UTC |
| 1075017 (antisense k[5mC]*kT*kT*dA*dA*dA*dG*dT*dG*dA*dT*dA*d[5mC]*kA*k[5mC]*k[5mC]) [Compound 1075017] | 19 % UTC |
| 1075049 (antisense kG*kA*kA*dA*dT*dA*dT*dT*dG*dG*dT*dA*dA*kG*kT*k[5mC]) [Compound 1075049] | 10 % UTC |

Same assay, conditions: Table 24; Yap1 mRNA as percent of untreated control; 3-10-3 cEt gapmers targeting SEQ ID NO.: 1, and 2

| Substance | YAP1 (% UTC) |
| --- | --- |
| 1074954 (antisense k[5mC]*k[5mC]*kG*dG*dG*dT*dT*dT*dT*dT*dG*dT*d[5mC]*kA*kT*k[5mC]) [Compound 1074954] | 91 % UTC |
| 1074986 (antisense k[5mC]*kT*kA*d[5mC]*dT*dG*dT*dA*dA*dT*d[5mC]*dA*d[5mC]*k[5mC]*kT*kT) [Compound 1074986] | 78 % UTC |
| 1075018 (antisense k[5mC]*k[5mC]*kT*dT*dA*dA*dA*dG*dT*dG*dA*dT*dA*k[5mC]*kA*k[5mC]) [Compound 1075018] | 29 % UTC |
| 1075050 (antisense kA*k[5mC]*k[5mC]*d[5mC]*dA*dA*d[5mC]*dG*dG*dT*d[5mC]*dA*dT*kG*kT*kT) [Compound 1075050] | 94 % UTC |

Same assay, conditions: Table 25; Yap1 mRNA as percent of untreated control; 3-10-3 cEt gapmers targeting SEQ ID NO.: 1, and 2

| Substance | YAP1 (% UTC) |
| --- | --- |
| 1074955 (antisense k[5mC]*k[5mC]*k[5mC]*dG*dG*dG*dT*dT*dT*dT*dT*dG*dT*k[5mC]*kA*kT) [Compound 1074955] | 93 % UTC |
| 1074987 (antisense kG*k[5mC]*k[5mC]*dG*d[5mC]*dG*dG*d[5mC]*dT*d[5mC]*d[5mC]*d[5mC]*dG*kA*kG*k[5mC]) [Compound 1074987] | 94 % UTC |
| 1075019 (antisense k[5mC]*kA*kT*dT*dA*dG*dA*dG*dT*dT*dT*dG*dA*kT*kT*kA) [Compound 1075019] | 64 % UTC |
| 1075051 (antisense kA*kA*kT*dA*dA*dA*d[5mC]*dA*dA*d[5mC]*d[5mC]*d[5mC]*dA*kA*k[5mC]*kG) [Compound 1075051] | 56 % UTC |

Same assay, conditions: Table 32; Yap1 mRNA, percent of untreated control; 3-10-3 cEt gapmers targeting SEQ ID NO.: 1, and 2

| Substance | YAP1 (% UTC) |
| --- | --- |
| 1074962 (antisense kA*kG*kG*d[5mC]*dA*dA*dG*d[5mC]*dA*dG*d[5mC]*dT*dA*kA*kA*kT) [compound 1074962] | 78 % UTC |
| 1074994 (antisense kA*kA*kA*d[5mC]*dT*dA*dA*dA*dT*dG*dG*dA*d[5mC]*k[5mC]*kG*kG) [compound 1074994] | 94 % UTC |
| 1075026 (antisense k[5mC]*kT*kT*dA*dA*dA*dA*dG*d[5mC]*d[5mC]*dA*dT*d[5mC]*kT*kA*k[5mC]) [compound 1075026] | 55 % UTC |
| 1075058 (antisense kA*kT*kT*dA*d[5mC]*dA*dA*dA*dG*dT*dA*dG*d[5mC]*kA*kA*k[5mC]) [compound 1075058] | 66 % UTC |

Same assay, conditions: Table 33; Yap1 mRNA, percent of untreated control; 3-10-3 cEt gapmers targeting SEQ ID NO.: 1, and 2

| Substance | YAP1 (% UTC) |
| --- | --- |
| 1074963 (antisense kT*kA*kG*dG*d[5mC]*dA*dA*dG*d[5mC]*dA*dG*d[5mC]*dT*kA*kA*kA) [compound 1074963] | 76 % UTC |
| 1074995 (antisense kA*kA*kA*dA*d[5mC]*dT*dA*dA*dA*dT*dG*dG*dA*k[5mC]*k[5mC]*kG) [compound 1074995] | 50 % UTC |
| 1075027 (antisense kA*kA*kA*dT*dT*dT*dG*dA*dA*d[5mC]*dT*dG*d[5mC]*k[5mC]*k[5mC]*kA) [compound 1075027] | 28 % UTC |
| 1075059 (antisense kA*kT*kT*dT*dA*d[5mC]*dT*dT*dT*dG*dG*dA*dT*kG*kT*k[5mC]) [compound 1075059] | 11 % UTC |

Same assay, conditions: Yap1 mRNA as percent of untreated control; A-431 cells; 3-10-3 cEt gapmers targeting SEQ ID NO.: 1, and 2; Table 30

| Substance | YAP1 (% UTC) |
| --- | --- |
| 1074960 (antisense k[5mC]*kT*kT*dA*dA*d[5mC]*d[5mC]*d[5mC]*dG*dG*dG*dT*dT*kT*kT*kT) [compound 1074960] | 81 % UTC |
| 1074992 (antisense k[5mC]*kA*kA*dT*dT*dA*dT*dT*dT*dG*dA*d[5mC]*dT*k[5mC]*k[5mC]*k[5mC]) [compound 1074992] | 63 % UTC |
| 1075024 (antisense kA*k[5mC]*kT*dG*dA*dA*d[5mC]*dA*dA*dG*dT*dA*dT*k[5mC]*kT*kT) [compound 1075024] | 32 % UTC |
| 1075056 (antisense k[5mC]*kT*kT*dT*dA*dT*dT*dA*dT*d[5mC]*dT*d[5mC]*dA*kA*k[5mC]*k[5mC]) [compound 1075056] | 21 % UTC |

Same assay, conditions: Yap1 mRNA as percent of untreated control; A-431 cells; 3-10-3 cEt gapmers targeting SEQ ID NO.: 1, and 2; Table 31

| Substance | YAP1 (% UTC) |
| --- | --- |
| 1074961 (antisense kT*k[5mC]*k[5mC]*dT*d[5mC]*d[5mC]*dT*dT*dA*dA*d[5mC]*d[5mC]*d[5mC]*kG*kG*kG) [compound 1074961] | 93 % UTC |
| 1074993 (antisense kT*k[5mC]*kT*dA*dA*dT*d[5mC]*dA*dA*d[5mC]*dA*d[5mC]*dT*kG*kG*kA) [compound 1074993] | 65 % UTC |
| 1075025 (antisense kA*k[5mC]*kT*dT*dA*dA*dG*dA*dA*d[5mC]*dT*d[5mC]*dA*k[5mC]*kA*k[5mC]) [compound 1075025] | 58 % UTC |
| 1075057 (antisense k[5mC]*k[5mC]*kT*dT*dA*dG*dG*dA*dG*dT*dA*dG*dA*k[5mC]*kT*kG) [compound 1075057] | 14 % UTC |
